The source made the active and inactive calls. No cut-off for these calls is given here. A value given as a limit tells only on which side of the number the result lay.

The record followed here is ChEMBL document CHEMBL6153141, “Design, Synthesis, and Mechanism Study of Novel BMX Inhibitors Based on the Core of 1,3,5-Triazin-2-Amine for the Treatment of Gastric Carcinoma” (J Med Chem, 2025).

The nature of data set [1]: Half-life in Sprague-Dawley rat at 5 mg/kg, po or 5 mg/kg, iv measured after 24 hrs by LC-MS/MS analysis. Format: ADME, organism-based. To be noted: in vivo.
For the next data set, the system named is MGC-803. The experiment in a line: Induction of apoptosis in human MGC-803 cells assessed as increase in apoptotic cells at 10 to 20 uM incubated for 48 hrs by Annexin V-FITC/PI staining based flow cytometric analysis. Format: functional, cell-based. The conditions noted are these: dose 10-20 µM.
Data set [2] can be described thus: Cytotoxicity against human L02 cells assessed as inhibition of cell proliferation incubated for 72 hrs by MTT assay. Format: toxicity, cell-based.
Data set [3] has as its system HGC-27. In words: Induction of apoptosis in human HGC-27 cells assessed as increase in apoptotic cells at 5 to 15 uM incubated for 48 hrs by Annexin V-FITC/PI staining based flow cytometric analysis. Type of data set: functional, cell-based. To be noted: dose 5-15 µM.
The test system of data set [4] is HGC-27. The experiment in a line: Induction of apoptosis in human HGC-27 cells assessed as increase in cleaved PARP level incubated for 48 hrs by Western blot analysis. Type of data set: functional, cell-based. The conditions noted are these: dose 5-15 µM.
The nature of data set [5]: Tmax in Sprague-Dawley rat at 5 mg/kg, po or 5 mg/kg, iv measured after 24 hrs by LC-MS/MS analysis. Type of data set: ADME, organism-based. To be noted: in vivo.
Data set [6] relates to HGC-27. In words: Antiproliferative activity against human HGC-27 cells assessed as inhibition of cell viability incubated for 24 to 72 hrs by MTT assay. Type of data set: functional, cell-based. To be noted: dose <= 50.0 µM, time 24-72 hrs.
The subject of a further data set is CWR22R. In words: cells. The conditions noted are these: Homo sapiens, 22Rv1, 72 h.
For data set [7], the system named is HGC-27. In words: Inhibition of colony formation in human HGC-27 cells assessed as decrease in clonogenic ability at 2.5 to 10 uM incubated for 48 hrs by crystal violet staining based analysis. To be noted: dose 2.5-10 µM. Format: functional, cell-based.

Description for CWR22R: Anticancer activity against human 22Rv1 cells assessed as inhibition of cell proliferation incubated for 72 hrs by MTT assay

In data set [1], `C=CS(=O)(=O)N1CCC[C@@H](Nc2nc(N)nc(Nc3cccc(Oc4ccccc4)c3)n2)C1` showed a half-life of 18.3 h. Also, the outcome with MGC-803 and with HGC-27 [3] was Active. Also, in [2], the concentration for half-maximal inhibition (IC50) at 72 h is greater than 32 µM. Also, the Activity entry in the data set on HGC-27 [4] and in the data set with HGC-27 [6] was “Dose-dependent-effect” each time. For the same compound, the time of peak concentration (Tmax) in [5] worked out at 6 min. The compound also gave an IC50 with CWR22R of 13.4 µM. Also, the inhibition result with HGC-27 [7] was “Active”.
